Laboratory results as given in patent US10017823B2, “Analytical method for increasing susceptibility of molecular targeted therapy in hepatocellular carcinoma” (CBS BIOSCIENCE, CO., LTD, priority 2013, dated 2018).

What was measured:
[1] = test system: hepatocellular carcinoma; test: Susceptibility assay in sorafenib-administered patients (tumor response according to RECIST); type: in vivo
Source text: The term “patient having susceptibility to sorafenib treatment” refers to a hepatocellular carcinoma patient showing response according to the sorafenib administration (i.e., tumor response). […] N Engl J Med 359: 378-390.
In the samples derived from 23 sorafenib-administered patients, we analyzed the relationship between the 7 marker gene expression patterns and the sorafenib efficacies. From the hierarchical clustering analysis results of FIG. 5, clustering without primary classification according to BCLC stages was performed according to expression ratio (tumor/non-tumor) of the target molecules; and then the 23 sorafenib-administered patients (i to xxiii) were correspondingly arranged thereto (FIG. 6). […] N Engl J Med 359: 378-390.

[2] = test system: advanced HCC; settings: HCC patients, stated as very low; cited from earlier work

CNC(=O)c1cc(Oc2ccc(NC(=O)Nc3ccc(Cl)c(C(F)(F)F)c3)cc2)ccn1 [sorafenib]
tumor response according to RECIST ([1]; patients viii, x, xi of the 23 sorafenib-administered HCC patients): partial response | susceptibility to the sorafenib treatment (RECIST tumor response) ([1]; remaining 20 of the 23 sorafenib-administered HCC patients): not susceptible | response rate of sorafenib [2]: about 3%
